Measured values as given in patent US20190083521A1, “COMBINATION THERAPY FOR TREATING CANCER” (Epizyme, Inc., priority 2014, published 2019).
Where two headings read alike, the source gives them in different places.

Columns and labels:
[1] = system: MOLM-13 (MLL-AF9) cells; assay: Example 7 primary screen: 300 nM EPZ-5676 pre-treatment, second compound 72 h, ATPLite, GI100 shift; format: cell-based, human; conditions: MOLM-13 (MLL-AF9); 300 nM EPZ-5676 pre-treatment vs DMSO
Protocol: (§1) Cells were split using EPZ-5676 or DMSO containing growth media and further incubated for an additional 3-day pre-treatment time. Cells were finally seeded in growth media containing EPZ-5676 or DMSO in 384-well plates at 500 cell/well density. Cells were then equilibrated in incubators for 24 hours before treatment with a second compound. Treated assay plates were incubated with a second compound for 72 hours. After this time, plates were developed for endpoint analysis using ATPLite to measure ATP content, which is used as an indicator of cell viability.
(§2) “N/D” means the GI100 of the second compound could not be determined for both conditions and “-” means not tested.
(§3) Growth Inhibition (GI) as a measure of cell viability: The cell viability of vehicle was measured at the time of dosing the second agent (T0) and after seventy-two hours (T72). A GI reading of 0% represents no growth inhibition—cells treated with test compound as compared to T72 vehicle signals were measured. […] A GI 200% represents complete death of all cells in the culture well. Compounds reaching an activity plateau of GI 200% are considered cytotoxic. GI is calculated by applying the following test and equation: […]

[2] = system: SKM-1 (non-MLLr) cells; assay: as above; format: cell-based, human; conditions: SKM-1 (non-MLLr); 300 nM EPZ-5676 pre-treatment vs DMSO
Protocol: as §1, §2, §3

[3] = system: OCI-AML-4 (MLL-ENL) cells; assay: as above; format: cell-based; conditions: OCI-AML-4 (MLL-ENL); 300 nM EPZ-5676 pre-treatment vs DMSO
Protocol: as §1, §2, §3

[4] = system: OCI-AML-4 (MLL-ENL) cells; assay: Example 7 retest: EPZ-5676 pre-treatment, second compound 72 h, Cell Titer Glo, growth inhibition; format: cell-based; conditions: for Combination result with EPZ-5676, Retest / Result (combination with EPZ-5676) / GI50: OCI-AML-4 (MLL-ENL); for Combination result with EPZ-5676, Retest: 300 nM EPZ-5676 pre-treatment vs DMSO; for Result (combination with EPZ-5676) / GI50: NRAS Q61R (het); for GI50: second compound, 72 h
[5] = system: RS4-11 (MLL-AF4) cells; assay: as above; format: cell-based; parameters: GI100: unit not given here; conditions: for GI50: Homo sapiens
[6] = system: ML-2 (MLL-AF6) cells; assay: as above; format: cell-based; parameters: GI100: unit not given here
[7] = system: MOLM-13 (MLL-AF9) cells; assay: as above; format: cell-based, human; parameters: GI100: unit not given here; conditions: for GI50: Homo sapiens; for Combination result with EPZ-5676, Retest: 150 nM EPZ-5676 pre-treatment vs DMSO
[8] = system: SKM-1 (non-MLLr) cells; assay: as above; format: cell-based, human; parameters: GI100: unit not given here; conditions: for Combination result with EPZ-5676, Retest: 300 nM EPZ-5676 pre-treatment vs DMSO
[9] = system: THP-1 (MLL-AF9) cells; assay: as above; format: cell-based; parameters: GI100: unit not given here; conditions: NRAS G12D
[10] = system: SKM-1 cells; assay: Example 6 combination screen: 300 nM EPZ-5676 pre-treatment, second compound 72 h, ATPLite, IC50 shift; format: cell-based, human; conditions: SKM-1 cells; 300 nM EPZ-5676 pre-treatment (4 + 3 days) vs DMSO, then 2nd compound 72 h; ATPLite; IC50 shift of 2nd compound
Protocol: Cells were then equilibrated in incubators for 24 hours before treatment with a second compound. Treated assay plates were incubated with a second compound for 72 hours. After this time, plates were developed for endpoint analysis using ATPLite to measure ATP content, which is used as an indicator of cell viability.
“N/D” means that IC50 of the second compound could not be determined for both conditions.

[11] = RS4-11 (MLL-AF4), Ras mutation status: None known, second compound, 72 h
[12] = ML-2 (MLL-AF6), KRAS A146T (het)
[13] = ML-2 (MLL-AF6), KRAS A146T (het), second compound, 72 h
[14] = MOLM-13 (MLL-AF9), Ras mutation status: None known, second compound, 72 h
[15] = MOLM-13 (MLL-AF9), Ras mutation status: None known
[16] = SKM-1 (non-MLLr), KRAS K117N (homo)
[17] = SKM-1 (non-MLLr), KRAS K117N (homo), second compound, 72 h

SMILES	Combination result with EPZ-5676, Primary screen [1]	Combination result with EPZ-5676, Primary screen [2]	Combination result with EPZ-5676, Primary screen [3]	Combination result with EPZ-5676, Retest [4]	Result (combination with EPZ-5676) [4]	GI50 [4]	GI50 [5, 11]	Result (combination with EPZ-5676) [6, 12]	GI50 [6, 13]	GI50 [7, 14]	Combination result with EPZ-5676, Retest ([7]; MOLM-13 (MLL-AF9))	Result (combination with EPZ-5676) [7, 15]	Combination result with EPZ-5676, Retest ([8]; SKM-1 (non-MLLr))	Result (combination with EPZ-5676) [8, 16]	GI50 [8, 17]	GI50 [9]	further results
CC(=O)Nc1cccc(-n2c(=O)n(C3CC3)c(=O)c3c(Nc4ccc(I)cc4F)n(C)c(=O)c(C)c32)c1 [Trametinib]	Synergy (considered synergistic if the GI100 (Growth inhibition 100) value of the second compound decreased by 2-fold or more when EPZ-5676 was added as compared to the DMSO control)	Synergy (considered synergistic if the GI100 (Growth inhibition 100) value of the second compound decreased by 2-fold or more when EPZ-5676 was added as compared to the DMSO control)	Synergy (considered synergistic if the GI100 (Growth inhibition 100) value of the second compound decreased by 2-fold or more when EPZ-5676 was added as compared to the DMSO control)	Synergy (considered synergistic if the GI100 (Growth inhibition 100) value of the second compound decreased by 2-fold or more when EPZ-5676 was added as compared to the DMSO control)	Synergy (considered synergistic if the GI100 (Growth inhibition 100) value of the second compound decreased by 2-fold or more when EPZ-5676 was added as compared to the DMSO control)	2 nM	> 10000 nM	Synergy (considered synergistic if the GI100 (Growth inhibition 100) value of the second compound decreased by 2-fold or more when EPZ-5676 was added as compared to the DMSO control)	1 nM	10 nM	Synergy (considered synergistic if the GI100 (Growth inhibition 100) value of the second compound decreased by 2-fold or more when EPZ-5676 was added as compared to the DMSO control)	Synergy (considered synergistic if the GI100 (Growth inhibition 100) value of the second compound decreased by 2-fold or more when EPZ-5676 was added as compared to the DMSO control)	Synergy (considered synergistic if the GI100 (Growth inhibition 100) value of the second compound decreased by 2-fold or more when EPZ-5676 was added as compared to the DMSO control)	Synergy (considered synergistic if the GI100 (Growth inhibition 100) value of the second compound decreased by 2-fold or more when EPZ-5676 was added as compared to the DMSO control)	1 nM	2 nM	GI100 [4]: 0.009; GI100 [5]: >10; GI100 [6]: 0.001; GI100 [7]: 0.03; GI100 [8]: 0.004
O=C(Nc1ccc2[nH]nc(-c3ccncc3)c2c1)[C@@H]1CCN(CC(=O)N2CCN(c3ccc(-c4ncccn4)cc3)CC2)C1 [SCH772984]	Synergy (considered synergistic if the GI100 (Growth inhibition 100) value of the second compound decreased by 2-fold or more when EPZ-5676 was added as compared to the DMSO control)	Synergy (considered synergistic if the GI100 (Growth inhibition 100) value of the second compound decreased by 2-fold or more when EPZ-5676 was added as compared to the DMSO control)	Synergy (considered synergistic if the GI100 (Growth inhibition 100) value of the second compound decreased by 2-fold or more when EPZ-5676 was added as compared to the DMSO control)	Synergy (considered synergistic if the GI100 (Growth inhibition 100) value of the second compound decreased by 2-fold or more when EPZ-5676 was added as compared to the DMSO control)	Synergy (considered synergistic if the GI100 (Growth inhibition 100) value of the second compound decreased by 2-fold or more when EPZ-5676 was added as compared to the DMSO control)	70 nM	7240 nM	Synergy (considered synergistic if the GI100 (Growth inhibition 100) value of the second compound decreased by 2-fold or more when EPZ-5676 was added as compared to the DMSO control)	40 nM	210 nM	Synergy (considered synergistic if the GI100 (Growth inhibition 100) value of the second compound decreased by 2-fold or more when EPZ-5676 was added as compared to the DMSO control)	Synergy (considered synergistic if the GI100 (Growth inhibition 100) value of the second compound decreased by 2-fold or more when EPZ-5676 was added as compared to the DMSO control)	Synergy (considered synergistic if the GI100 (Growth inhibition 100) value of the second compound decreased by 2-fold or more when EPZ-5676 was added as compared to the DMSO control)	Synergy (considered synergistic if the GI100 (Growth inhibition 100) value of the second compound decreased by 2-fold or more when EPZ-5676 was added as compared to the DMSO control)	20 nM	60 nM	Summary of Combination Studies: SKM-1 [10]: Synergy (considered synergistic if the IC50 value of the second compound decreased by 2-fold or more when EPZ-5676 was added as compared to the DMSO control); GI100 [5, 11]: >10; GI100 [6, 13]: 0.26; GI100 [7, 14]: 0.53; GI100 [8, 17]: 0.086; GI100 [9]: >10
